Experimental findings from article PMC10216478, “Development of a Non-Peptide Angiotensin II Type 1 Receptor Ligand by Structural Modification of Olmesartan as a Biased Agonist” (Biomedicines, 2023) are described below.

For the assay, the target named is T1, AT1 Q257A receptor (Rattus norvegicus, UniProt P25095, Q257A).
T1 construct: expressed in transfected cells; host or cells: COS7
T1 sequence (P25095 1-359 Q257A): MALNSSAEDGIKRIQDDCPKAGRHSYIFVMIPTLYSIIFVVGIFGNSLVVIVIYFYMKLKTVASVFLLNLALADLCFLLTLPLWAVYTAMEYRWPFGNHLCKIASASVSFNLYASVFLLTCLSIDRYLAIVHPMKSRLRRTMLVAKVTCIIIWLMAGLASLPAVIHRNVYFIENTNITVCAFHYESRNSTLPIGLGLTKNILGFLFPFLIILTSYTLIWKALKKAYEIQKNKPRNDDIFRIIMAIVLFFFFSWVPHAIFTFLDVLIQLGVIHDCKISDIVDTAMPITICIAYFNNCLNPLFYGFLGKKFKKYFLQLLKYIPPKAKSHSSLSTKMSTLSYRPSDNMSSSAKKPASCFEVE
The assay can be described thus: Immunoblotting of ERK 1/2 activation in COS7 cells overexpressing AT1-Q257A receptor. It counts as cell-based. The settings on record: 1 µM ligands or 0.1 µM Ang II, 10 min, n = 5, vs. (-). The protocol:
The synthetic rat AT1 receptor gene, which was cloned in the shuttle expression vector pMT-2, was used for expression and mutagenesis, as described previously. […] In the experiments, cells were grown without a cell-growth supplement. To express the AT1 receptor protein, 10 µg of purified plasmid DNA per 10^7 cells was used in the transfection. Wild-type and mutated AT1 receptors were transiently transfected into cells using Lipofectamine 2000 liposomal reagent (Roche Applied Science, Penzberg, Germany). Cells were plated and grown and were 70–90% confluent at the time of transfection. We incubated plasmid DNA (10 µg)–lipid (10 µL) complexes for 5 min at room temperature and added and incubated the complexes with cells for 24 h. We then analyzed the parameters in transfected cells. […] Transfected cells that had been cultured for 48–72 h were harvested. […]
In in vitro studies, ERK 1/2 activation by 1 µM ligands or 0.1 µM Ang II incubated for 10 min was measured using COS7 cells that overexpressed AT1 wild-type and mutant receptors. ERK activity was measured in cells maintained for 18 h in DMEM containing 0.1% serum. […] We homogenized the cells in lysis buffer plus protease inhibitors and determined the protein concentration using the bicinchoninic acid method. […] The signal was independently quantified by digital image analysis (ImageJ, National Institutes of Health, Bethesda, MD, USA).
On the technique in general: A western blot detects proteins with antibodies after separation by electrophoresis.

On to `CCCc1nc(C(C)(C)O)c(C(=O)O)n1Cc1ccc(-c2ccccc2-c2nnn[nH]2)cc1` [Olmesartan, olmesartan], for which the ERK1/2 activation entry is reported as “did not change ERK1/2 activation”.
